Source: the supplement of paper PMC11281043

How the values were obtained:
Settings in all cases: exposure: 6-8 hpf to 5 dpf, scored at 6 dpf
[1] = test system: Danio rerio embryo/larva; test: max % larvae with tail defects across tested concentrations; higher = more toxic; extreme values may be limits of the assay
[2] = test system: Danio rerio embryo/larva; test: max % larvae with spinal defects across tested concentrations; higher = more toxic; extreme values may be limits of the assay
[3] = test system: Danio rerio embryo/larva; test: max % larvae with abnormal position across tested concentrations; higher = more toxic; extreme values may be limits of the assay
[4] = test system: Danio rerio embryo/larva; test: max % larvae generally abnormal across tested concentrations; higher = more toxic; extreme values may be limits of the assay
[5] = test system: Danio rerio embryo/larva; test: max % larvae with uninflated swim bladder across tested concentrations; higher = more toxic; extreme values may be limits of the assay
[6] = test system: Danio rerio embryo/larva; test: max % larvae with edema across tested concentrations; higher = more toxic; extreme values may be limits of the assay
[7] = test system: Danio rerio embryo/larva; test: max % larvae with craniofacial defects across tested concentrations; higher = more toxic; extreme values may be limits of the assay
[8] = test system: Danio rerio embryo/larva; test: max % larvae with blood pooling across tested concentrations; higher = more toxic; extreme values may be limits of the assay
[9] = test system: Danio rerio embryo/larva; test: max % larvae with pigmentation defects across tested concentrations; higher = more toxic
[10] = test system: Danio rerio embryo/larva; test: max % larvae unhatched across tested concentrations; max tested concentration (log10 uM): 2; higher = more toxic
[11] = test system: Danio rerio embryo/larva; test: max % larvae with any abnormality across tested concentrations; max tested concentration (log10 uM): 2; higher = more toxic; extreme values may be limits of the assay

C[N+](C)(C)CCCNS(=O)(=O)C(F)(F)C(F)(F)C(F)(F)C(F)(F)C(F)(F)C(F)(F)C(F)(F)C(F)(F)F (max tested concentration (log10 uM): 1.47712)
max % larvae [1]: 0%
max % larvae [2]: 0%
max % larvae [3]: 12.5%
max % larvae generally abnormal across tested concentrations [4]: 50%
max % larvae [5]: 25%
max % larvae [6]: 50%
max % larvae [7]: 50%
max % larvae [8]: 0%
max % larvae [9]: 0%

O=C(CC(=O)C(F)(F)F)C(F)(F)F [1,1,1,5,5,5-Hexafluoro-2,4-pentanedione] (max tested concentration (log10 uM): 2)
max % larvae [1]: 0%
max % larvae [2]: 0%
max % larvae [3]: 0%
max % larvae generally abnormal across tested concentrations [4]: 0%
max % larvae [5]: 0%
max % larvae [6]: 0%
max % larvae [7]: 0%
max % larvae [8]: 0%
max % larvae [9]: 0%

FC(F)(Br)C(F)(F)C(F)(F)C(F)(F)C(F)(F)C(F)(F)Br [1,6-Dibromododecafluorohexane] (max tested concentration (log10 uM): 2)
max % larvae [1]: 0%
max % larvae [2]: 0%
max % larvae [3]: 0%
max % larvae generally abnormal across tested concentrations [4]: 4.17%
max % larvae [5]: 0%
max % larvae [6]: 4.17%
max % larvae [7]: 0%
max % larvae [8]: 0%
max % larvae [9]: 0%

CCCCCCCCC(F)(F)C(F)(F)C(F)(F)C(F)(F)C(F)(F)C(F)(F)F [1-(Perfluorohexyl)octane] (max tested concentration (log10 uM): 1.60206)
max % larvae [1]: 0%
max % larvae [2]: 0%
max % larvae [3]: 0%
max % larvae generally abnormal across tested concentrations [4]: 0%
max % larvae [5]: 0%
max % larvae [6]: 0%
max % larvae [7]: 0%
max % larvae [8]: 0%
max % larvae [9]: 0%

FC(F)(F)C(F)(F)C(F)(F)C(F)(F)C(F)(F)C(F)(F)C(F)(F)CCI [1-Iodo-1H,1H,2H,2H-perfluorononane] (max tested concentration (log10 uM): 1.60206)
max % larvae [1]: 0%
max % larvae [2]: 0%
max % larvae [3]: 0%
max % larvae generally abnormal across tested concentrations [4]: 0%
max % larvae [5]: 0%
max % larvae [6]: 0%
max % larvae [7]: 0%
max % larvae [8]: 0%
max % larvae [9]: 0%

FC(F)(F)C(F)(F)C(F)(F)C(F)(F)C(F)(F)C(F)(F)C(F)(F)I [1-Iodopentadecafluoroheptane] (max tested concentration (log10 uM): 2)
max % larvae [1]: 0%
max % larvae [2]: 8.33%
max % larvae [3]: 10.4%
max % larvae [5]: 80%
max % larvae [6]: 30%
max % larvae [7]: 10%
max % larvae [8]: 16.7%
max % larvae [9]: 0%

FC(F)(F)C(F)(F)C(F)(F)C(F)(F)CCI [1H,1H,2H,2H-Perfluorohexyl iodide] (max tested concentration (log10 uM): 2)
max % larvae [1]: 0%
max % larvae [2]: 0%
max % larvae [3]: 0%
max % larvae generally abnormal across tested concentrations [4]: 8.33%
max % larvae [5]: 0%
max % larvae [6]: 8.33%
max % larvae [7]: 0%
max % larvae [8]: 0%
max % larvae [9]: 0%

Cc1ccc(S(=O)(=O)OCC(F)(F)C(F)(F)C(F)(F)C(F)(F)C(F)(F)C(F)F)cc1 [1H,1H,7H-Perfluoroheptyl 4-methylbenzenesulfonate] (max tested concentration (log10 uM): 2)
max % larvae [1]: 0%
max % larvae [2]: 4.17%
max % larvae [3]: 4.17%
max % larvae [5]: 75%
max % larvae [6]: 16.7%
max % larvae [7]: 16.7%
max % larvae [8]: 0%
max % larvae [9]: 0%

C=CC(=O)OCC(F)(F)C(F)(F)C(F)(F)C(F)(F)C(F)(F)C(F)(F)C(F)(F)C(F)F [1H,1H,9H-Perfluorononyl acrylate]
max % larvae unhatched across tested concentrations [10]: 0%
max % larvae [11]: 16.7%

OCC(F)(F)OC(F)(F)C(F)(F)OC(F)(F)C(F)(F)OC(F)(F)CO [1H,1H,11H,11H-Perfluorotetraethylene glycol]
max % larvae unhatched across tested concentrations [10]: 0%
max % larvae [11]: 100%

FC(F)(F)C(F)(F)C(F)(F)CC1CO1 (centres undefined) [1H,1H-Heptafluorobutyl epoxide] (max tested concentration (log10 uM): 2)
max % larvae [1]: 9.09%
max % larvae [2]: 0%
max % larvae [3]: 0%
max % larvae [5]: 9.09%
max % larvae [6]: 9.09%
max % larvae [7]: 9.09%
max % larvae [8]: 9.09%
max % larvae [9]: 0%

O=S(=O)(OCC(F)(F)F)C(F)(F)C(F)(F)C(F)(F)C(F)(F)F [2,2,2-Trifluoroethyl perfluorobutanesulfonate] (max tested concentration (log10 uM): 2)
max % larvae [1]: 4.55%
max % larvae [2]: 0%
max % larvae [3]: 11.4%
max % larvae [5]: 90.9%
max % larvae [6]: 54.5%
max % larvae [7]: 9.09%
max % larvae [8]: 31.8%
max % larvae [9]: 0%

O=P(O)(O)CCC(F)(F)C(F)(F)C(F)(F)C(F)(F)C(F)(F)C(F)(F)F [2-(Perfluorohexyl)ethylphosphonic acid] (max tested concentration (log10 uM): 2)
max % larvae [1]: 0%
max % larvae [2]: 0%
max % larvae [3]: 10%
max % larvae [5]: 40%
max % larvae [6]: 60%
max % larvae [7]: 20%
max % larvae [8]: 0%
max % larvae [9]: 0%

O=C(O)C=C(C(F)(F)F)C(F)(F)F [3,3-Bis(trifluoromethyl)-2-propenoic acid] (max tested concentration (log10 uM): 2)
max % larvae [1]: 0%
max % larvae [2]: 0%
max % larvae [3]: 0%
max % larvae [5]: 0%
max % larvae [6]: 2.08%
max % larvae [7]: 0%
max % larvae [8]: 0%
max % larvae [9]: 0%

O=C(O)CCC(F)(F)C(F)(F)C(F)(F)F [3:3 Fluorotelomer carboxylic acid] (max tested concentration (log10 uM): 2)
max % larvae [1]: 2.5%
max % larvae [2]: 0%
max % larvae [3]: 7.5%
max % larvae [5]: 20%
max % larvae [6]: 17.5%
max % larvae [7]: 10%
max % larvae [8]: 10%
max % larvae [9]: 0%

OCCCCC(F)(F)C(F)(F)C(F)(F)C(F)(F)F [4:4 Fluorotelomer alcohol] (max tested concentration (log10 uM): 2)
max % larvae [1]: 15.6%
max % larvae [2]: 0%
max % larvae [3]: 18.8%
max % larvae [5]: 93.8%
max % larvae [6]: 93.8%
max % larvae [7]: 81.2%
max % larvae [8]: 0%
max % larvae [9]: 0%

OCC(F)(F)C(F)(F)C(F)(F)C(F)(F)C(F)(F)C(F)(F)F [6:1 Fluorotelomer alcohol] (max tested concentration (log10 uM): 2)
max % larvae [1]: 12.5%
max % larvae [2]: 12.5%
max % larvae [3]: 4.17%
max % larvae [5]: 25%
max % larvae [6]: 25%
max % larvae [7]: 25%
max % larvae [8]: 16.7%
max % larvae [9]: 0%

O=S(=O)(O)CCC(F)(F)C(F)(F)C(F)(F)C(F)(F)C(F)(F)C(F)(F)F [6:2 Fluorotelomer sulfonic acid] (max tested concentration (log10 uM): 2)
max % larvae [1]: 0%
max % larvae [2]: 0%
max % larvae [3]: 4.17%
max % larvae [5]: 0%
max % larvae [6]: 4.17%
max % larvae [7]: 0%
max % larvae [8]: 0%
max % larvae [9]: 0%

FC(F)C(F)(F)COCC1CO1 (centres undefined) [((2,2,3,3-Tetrafluoropropoxy)methyl)oxirane] (max tested concentration (log10 uM): 2)
max % larvae [1]: 0%
max % larvae [2]: 0%
max % larvae [3]: 8.33%
max % larvae [5]: 91.7%
max % larvae [6]: 31.2%
max % larvae [7]: 16.7%
max % larvae [8]: 0%
max % larvae [9]: 0%

C=C(C)C(=O)OCC(F)(F)C(F)(F)C(F)(F)F [(Perfluoropropyl)methyl methacrylate] (max tested concentration (log10 uM): 2)
max % larvae [1]: 4.17%
max % larvae [2]: 0%
max % larvae [3]: 4.17%
max % larvae [5]: 8.33%
max % larvae [6]: 8.33%
max % larvae [7]: 8.33%
max % larvae [8]: 0%
max % larvae [9]: 4.17%

O=C(O)C(F)(F)C(F)(F)C(F)(F)C(F)(F)C(F)(F)C(F)(F)C(F)(F)F [Ammonium perfluorooctanoate]
max % larvae unhatched across tested concentrations [10]: 0%
max % larvae [11]: 16.7%

O=C(O)C(F)(F)C(F)(F)C(F)(F)C(F)(F)C(F)(F)C(F)(F)C(F)(F)F [Ammonium perfluorooctanoate] (max tested concentration (log10 uM): 2)
max % larvae [1]: 0%
max % larvae [2]: 0%
max % larvae [3]: 0%
max % larvae [5]: 9.09%
max % larvae [6]: 0%
max % larvae [7]: 0%
max % larvae [8]: 0%
max % larvae [9]: 0%

FC(F)(F)C(F)(F)CNCC(F)(F)C(F)(F)F [Bis(1H,1H-perfluoropropyl)amine] (max tested concentration (log10 uM): 2)
max % larvae [1]: 0%
max % larvae [2]: 0%
max % larvae [3]: 0%
max % larvae [5]: 16.7%
max % larvae [7]: 0%
max % larvae [8]: 0%
max % larvae [9]: 0%

NC(=O)C(F)(F)C(F)(F)C(F)(F)F [Heptafluorobutyramide] (max tested concentration (log10 uM): 2)
max % larvae [1]: 0%
max % larvae [2]: 0%
max % larvae [3]: 0%
max % larvae [5]: 10%
max % larvae [6]: 8.33%
max % larvae [7]: 0%
max % larvae [8]: 0%
max % larvae [9]: 0%

O=S(=O)(Cl)C(F)(F)C(F)(F)C(F)(F)C(F)(F)C(F)(F)C(F)(F)C(F)(F)C(F)(F)F [Perfluoro-1-octanesulfonyl chloride] (max tested concentration (log10 uM): 2)
max % larvae [1]: 100%
max % larvae [2]: 25%
max % larvae [3]: 25%
max % larvae [5]: 100%
max % larvae [6]: 100%
max % larvae [7]: 100%
max % larvae [8]: 0%
max % larvae [9]: 0%

O=C(O)C(F)(F)C(F)(F)OC(F)(F)F [Perfluoro-3-methoxypropanoic acid] (max tested concentration (log10 uM): 2)
max % larvae [1]: 0%
max % larvae [2]: 0%
max % larvae [3]: 0%
max % larvae [5]: 0%
max % larvae [6]: 8.33%
max % larvae [7]: 0%
max % larvae [8]: 16.7%
max % larvae [9]: 0%

O=C(O)C(F)(F)C(F)(F)C(=O)O [Perfluorobutanedioic acid] (max tested concentration (log10 uM): 2)
max % larvae [1]: 0%
max % larvae [2]: 0%
max % larvae [3]: 4.17%
max % larvae [5]: 0%
max % larvae [6]: 8.33%
max % larvae [7]: 0%
max % larvae [8]: 8.33%
max % larvae [9]: 0%

O=S(=O)(O)C(F)(F)C(F)(F)C(F)(F)C(F)(F)C(F)(F)C(F)(F)C(F)(F)F [Perfluoroheptanesulfonic acid] (max tested concentration (log10 uM): 1.90309)
max % larvae [1]: 37.5%
max % larvae [2]: 8.33%
max % larvae [3]: 50%
max % larvae [5]: 100%
max % larvae [6]: 91.7%
max % larvae [7]: 100%
max % larvae [8]: 50%
max % larvae [9]: 16.7%

O=C(O)C(F)(F)C(F)(F)C(F)(F)C(F)(F)C(F)(F)C(F)(F)F [Perfluoroheptanoic acid]
max % larvae unhatched across tested concentrations [10]: 0%
max % larvae [11]: 16.7%

O=S(=O)(O)C(F)(F)C(F)(F)C(F)(F)C(F)(F)C(F)(F)C(F)(F)F [Perfluorohexanesulfonic acid] (max tested concentration (log10 uM): 2)
max % larvae [1]: 0%
max % larvae [2]: 3.12%
max % larvae [3]: 31.2%
max % larvae [5]: 100%
max % larvae [6]: 31.2%
max % larvae [7]: 50%
max % larvae [8]: 25%
max % larvae [9]: 0%

O=C(O)C(F)(F)C(F)(F)C(F)(F)C(F)(F)C(F)(F)C(F)(F)C(F)(F)F [Perfluorooctanoic acid]
max % larvae unhatched across tested concentrations [10]: 0%
max % larvae [11]: 16.7%

O=S(=O)(O)C(F)(F)C(F)(F)C(F)(F)C(F)(F)C(F)(F)C(F)(F)C(F)(F)C(F)(F)F [Potassium perfluorooctanesulfonate] (max tested concentration (log10 uM): 2)
max % larvae [1]: 100%
max % larvae [2]: 50%
max % larvae [3]: 50%
max % larvae [5]: 100%
max % larvae [6]: 100%
max % larvae [7]: 100%
max % larvae [8]: 33.3%
max % larvae [9]: 0%

O=C(O)C(F)(F)C(F)(F)C(F)(F)C(F)(F)C(F)(F)C(F)(F)C(F)(F)F [Potassium perfluorooctanoate] (max tested concentration (log10 uM): 2)
max % larvae [1]: 2.27%
max % larvae [2]: 0%
max % larvae [3]: 2.27%
max % larvae [5]: 9.09%
max % larvae [6]: 9.09%
max % larvae [7]: 9.09%
max % larvae [8]: 9.09%
max % larvae [9]: 0%
